Reference: ChEMBL document CHEMBL5346919, “Toward anthelmintic drug candidates for toxocariasis: Challenges and recent developments” (2023)

Columns and labels:
Type in all cases: functional
Toxocara canis [1] = experiment: Antiparasitic activity against Toxocara canis assessed as relative mobility at 1 to 10000 uM measured after 24 hrs by; settings: dose 1-10000 µM, read-out: ED50 (the source's name)
Toxocara canis [2] = experiment: Antiparasitic activity against Toxocara canis j2 larvae assessed as relative mobility at 18 uM measured after 48 hrs
Toxocara canis [3] = experiment: Antiparasitic activity against Toxocara canis assessed as larvicidal activity at 1100 uM measured after 48 hrs relative to control
Toxocara canis [4] = experiment: Antiparasitic activity against Toxocara canis infected in mouse assessed as worm burden reduction in muscles at 350 mg/kg,sc administered twice a day relative to control; parameters: scale not given: the % may be the effect or the level left
Toxocara canis [5] = experiment: Antiparasitic activity against Toxocara canis infected in mouse assessed as worm burden reduction in muscles at 25 mg/kg,sc administered twice a day for 5 days relative to control; parameters: scale not given: the % may be the effect or the level left; settings: time 5 day
Toxocara canis [6] = experiment: Antiparasitic activity against Toxocara canis infected in mouse assessed as worm burden reduction in brain at 25 mg/kg,sc administered twice a day for 5 days relative to control; parameters: scale not given: the % may be the effect or the level left; settings: time 5 day
Toxocara canis [7] = experiment: Antiparasitic activity against Toxocara canis infected in mouse assessed as worm burden reduction in brain at 150 mg/kg,sc administered twice a day relative to control; parameters: scale not given: the % may be the effect or the level left
Toxocara canis [8] = experiment: Antiparasitic activity against Toxocara canis infected in mouse assessed as worm burden reduction in brain at 25 mg/kg,po or sc administered twice a day for 5 days relative to control; parameters: scale not given: the % may be the effect or the level left; settings: time 5 day
Toxocara canis [9] = experiment: Antiparasitic activity against Toxocara canis infected in mouse assessed as worm burden reduction in brain at 100 mg/kg,po administered twice a day for 5 days relative to control; parameters: scale not given: the % may be the effect or the level left; settings: time 5 day
Toxocara canis [10] = experiment: Antiparasitic activity against Toxocara canis assessed as larvicidal activity at 192 uM measured after 48 hrs relative to control
Toxocara vitulorum [11] = experiment: Antiparasitic activity against Toxocara vitulorum infected in assessed as decrease in number of larvae in lung at 40 mg/kg,po measured after 7 days; settings: 168 h, time 7 day
Toxocara vitulorum [12] = experiment: Antiparasitic activity against Toxocara vitulorum infected in assessed as decrease in number of larvae in liver at 40 mg/kg,po measured after 7 days; settings: 168 h, time 7 day
Toxocara cati [13] = experiment: Antiparasitic activity against Toxocara cati infected in cat assessed as worm burden reduction at 25 mg/kg,po measured after 3 days; parameters: scale not given: the % may be the effect or the level left; settings: time 3 day
Toxocara canis [14] = experiment: Antiparasitic activity against Toxocara canis infected in dog assessed as egg burden reduction at 50 mg/kg,po measured after 3 days; parameters: scale not given: the % may be the effect or the level left; settings: time 3 day
Toxocara cati [15] = experiment: Antiparasitic activity against Toxocara cati infected in cat assessed as worm burden reduction at 50 mg/kg, po measured after 2 days; parameters: scale not given: the % may be the effect or the level left; settings: time 2 day
Toxocara canis [16] = experiment: Antiparasitic activity against Toxocara canis infected in mouse assessed as worm burden reduction in muscles at 25 mg/kg,po or sc administered twice a day for 5 days relative to control; parameters: scale not given: the % may be the effect or the level left; settings: time 5 day
Toxocara canis [17] = experiment: Antiparasitic activity against Toxocara canis assessed as relative mobility

Question: For `COc1ccc(Cc2nccc3cc(OC)c(OC)cc23)cc1OC` [PAPAVERINE], which EC50 (Toxocara canis [1]) is on record?
Answer: 250 µM

Question: For `COc1ccc2c(c1OC)CN(C)CCc1cc3c(cc1C(=O)C2)OCO3` [ALLOCRYPTOPINE], which EC50 (Toxocara canis [1]) is on record?
Answer: 349 µM

Question: Which Activity (Toxocara canis [2]) does the source give for `CCCSc1ccc2c(c1)nc(NC(=O)OC)n2COC(C)=O` here?
Answer: 30%

Question: Which Activity (Toxocara canis [3]) does the source give for `C=CCOC1=CC(=O)c2ccccc2C12CO2` (stereo not given) here?
Answer: 100%

Question: `COc1cc2c(cc1OC)-c1c(C)c3ccc(OC)c(OC)c3c[n+]1CC2` [DEHYDROCORYDALINE] was tested. Which EC50 (Toxocara canis [1]) did it give?
Answer: 295 µM

Question: Which results are given for `CCCSc1ccc2[nH]c(NC(=O)OC)nc2c1` [ALBENDAZOLE]?
Answer: Activity (Toxocara canis [4]): 37.5%; Activity (Toxocara canis [5]): 70%; Activity (Toxocara canis [6]): 92.2%; Activity (Toxocara canis [7]): 54.2%; Activity (Toxocara canis [8]): 66.1%; Activity (Toxocara canis [9]): 100%

Question: `CC1(C)CCC2=C(O1)C1(CO1)c1ccccc1C2=O` (stereo not given) was tested. Which Activity (Toxocara canis [3]) did it give?
Answer: 100%

Question: What about the Activity (Toxocara canis [10]) of the same compound?
Answer: 100%

Question: What does the source list for `Cc1ccc(C(C)C)c(O)c1` [THYMOL]?
Answer: inhibition in vivo at 40 mg/kg (Toxocara vitulorum [11]): 66.7%; inhibition in vivo at 40 mg/kg (Toxocara vitulorum [12]): 58.5%

Question: With `O=C1C(Cl)=C(Cl)C2(CO2)c2ccccc21` (stereo not given) as the compound, how does the Activity (Toxocara canis [3]) read?
Answer: 100%

Question: With `O=C(Nc1ccc(N=C=S)cc1Cl)c1cc(Br)cc(Br)c1O` as the compound, how does the Activity (Toxocara cati [13]) read?
Answer: 100%

Question: What about the Activity (Toxocara canis [14]) of the same compound?
Answer: 100%

Question: What about the Activity (Toxocara cati [15]) of the same compound?
Answer: 100%

Question: With `CC1(C)CCC2=C(O1)C1(CO1)C1=C(CCCC1)C2=O` (stereo not given) as the compound, how does the Activity (Toxocara canis [3]) read?
Answer: 100%

Question: Which Activity (Toxocara canis [16]) does the source give for `COC(=O)Nc1nc2cc(Sc3ccccc3)ccc2[nH]1` [FENBENDAZOLE] here?
Answer: 89.5%

Question: What about the Activity (Toxocara canis [5]) of the same compound?
Answer: 55.7%

Question: What about the Activity (Toxocara canis [6]) of the same compound?
Answer: 44.7%

Question: Which ED (Toxocara canis [17]) does the source give for `OCCCC1NCCc2c1[nH]c1ccccc21` (stereo not given) here?
Answer: 59.9 µM

Question: `CC1(C)CC2=C(O1)C1(CO1)c1ccccc1C2=O` (stereo not given) was tested. Which Activity (Toxocara canis [3]) did it give?
Answer: 100%
